Here are results for one compound from PMC10958225, “Therapeutic potential of orally applied KB-R7943 in streptozotocin-induced neuropathy in rats” (Heliyon, 2024).

Each structure is given as a SMILES string.

Data set [1] relates to STZ-treated rats with neuropathy. Description: Coat state score. It is filed as in vivo, rat. The conditions noted are these: chronic p.o. treatment from day 28, day 42. On the procedure:
(§1) On the day of diabetic state induction, rats were deprived of food for 6 h (from 8 a.m. to 2 p.m.). A single i.p. injection was applied with 55 mg/kg STZ in the ice-cold citrate buffer (0.1 M pH 4.4). The observed polydipsia, polyuria, reduced thriving with lower body weight, and poor coating appearance indirectly indicated the development of diabetes. On day 28, after 6 h of fasting, blood glucose was measured with an Xpress Statstrip Glucometer (Nova Biomedical Corporation, Waltham, MA, USA) from the tail vein. A cut-off value of blood glucose >13 mmol/l was adopted. […] Controls were once i.p. injected with ice-cold citrate buffer 0.1 M pH 4.4 only.
(§2) Three animals per cage were housed for the experiment 2 (Fig. 3B). […] Body weight (BW), coat score (CS), CPT, R–S, and FT were evaluated on day 28th post-STZ, and after that, rats were distributed into the treatment groups as follows. • C-Veh – Controls, vehiculum treatment (n = 12) • NP-Veh – STZ-treated rats with neuropathy, vehiculum treatment (n = 12) • NP-KB-R7943 – 5 mg - STZ-treated rats, with neuropathy, KB-R7943 5 mg/kg treatment (n = 12) • NP-KB-R7943 – 10 mg – STZ-treated rats, with neuropathy, KB-R7943 10 mg/kg (n = 12) • NP-AMT – 10 mg - STZ-treated rats, with neuropathy, amitriptyline 10 mg/kg (n = 12). […]
Coat state, water consumption, and body weight were evaluated weakly. […] Water consumption was measured per cage. […]

The subject of a further data set is NCX3. Set-up: method as in PMID 9688596. Particulars: cited from earlier work.
For data set [2], the system named is STZ-treated rats with neuropathy. Description: Mortality and adverse effects during chronic oral treatment. The class given is in vivo. The conditions noted are these: rat, in vivo, po. On the procedure: Three animals per cage were housed for the experiment 2 (Fig. 3B). Rats were gently manipulated daily before undertaking the actual behavior tests. One week after adaptation, the Randl-Stellito (R–S) test, cold plate test (CPT), and formalin tests (FT) were performed at baseline. After that, the diabetes model was made with 48 rats. Twelve animals served as controls. Body weight (BW), coat score (CS), CPT, R–S, and FT were evaluated on day 28th post-STZ, and after that, rats were distributed into the treatment groups as follows. • C-Veh – Controls, vehiculum treatment (n = 12) • NP-Veh – STZ-treated rats with neuropathy, vehiculum treatment (n = 12) • NP-KB-R7943 – 5 mg - STZ-treated rats, with neuropathy, KB-R7943 5 mg/kg treatment (n = 12) • NP-KB-R7943 – 10 mg – STZ-treated rats, with neuropathy, KB-R7943 10 mg/kg (n = 12) • NP-AMT – 10 mg - STZ-treated rats, with neuropathy, amitriptyline 10 mg/kg (n = 12).
OraPlus was used as a vehiculum for gavage (16 gauge feeding tube 10 ml/kg) in all rats. KB-R7943 in two doses (5 or 10 mg/kg) or amitriptyline 10 mg/kg was applied once daily until day 49. Behavior tests were performed […] after the oral gavage of the corresponding day, in the afternoon, starting from 2 p.m. […] On day 41, an FST was performed, and at 2 p.m., rats were placed individually for 24 h to assess spontaneous physical activity. […]

Data set [3] has the same test system. The data set can be described thus: 24-hour spontaneous physical activity. The conditions noted are these: 5 mg/kg p.o. once daily from day 28, from day 41. It is filed as in vivo, rat. On the procedure: as §1
as §2, with “3B). Rats were gently manipulated daily before undertaking the actual behavior tests.” for “3B).”

Data set [4] has the same test system. Description: Forced swim test (FST). It is filed as in vivo, rat. Particulars: 10 mg/kg p.o. once daily from day 28, test on day 41, 5-min test. On the procedure: as §1
as §2, with “3B). Rats were gently manipulated daily before undertaking the actual behavior tests.” for “3B).”

With `N=C(N)SCCc1ccc(OCc2ccc([N+](=O)[O-])cc2)cc1` [KB-R7943, [(2-{4-[(4-nitrophenyl)methoxy]phenyl}ethyl)sulfanyl]methanimidamide], the “effect on coat score” value in data set [1] is “ameliorated”. In addition, the “potency as inhibitor of NCX3 relative to NCX1 and NCX2” value in the data set with NCX3 was “three-fold more potent inhibitor of NCX3 than NCX1 and NCX2”. For the same compound, the mortality during treatment entry in data set [2] is recorded as “No one rat died”. The “24-h spontaneous physical activity” value in data set [3] came to 1705.92 ± 237.74 beam breaks. For the same compound, in data set [4], the “immobility time in FST” value came out at 131.67 ± 29.80 s.
